Assay [1] addresses T1, fusion protein Tel/PDGF-R (PDGF-Rβ kinase domain) in HEK cells (Homo sapiens, UniProt P09619).
T1 construct: the transmembrane and intracellular part of the PDGF-Rβ receptor; N-terminal part of the Tel transcription factor (ETV6); expressed in transfected cells; host or cells: HEK cells (transient transfection); the other entry of the earlier key: ETV6 (P41212, Transcription factor ETV6)
The assay can be described thus: Ex vivo activity: plasma of orally treated mice tested on PDGF-R autophosphorylation in HEK Tel/PDGF-R cells (ELISA). The arrangement: species or system female Balb/c mice. Conditions: HEK293, mouse, po, 30 mg/kg po, read-out: % inhibition of autophosphorylation of PDGFR tyrosine kinase in HEK cells. As to the method:
Ex vivo activity of the compounds of the invention was measured. These compounds are thus administered orally to female Balb/c mice at a dose of 10, 30 or 100 mg/kg in suspension or in solution in a vehicle such as methylcellulose/Tween and the inhibition of the tyrosine kinase activity is measured in vitro in a cell test, using plasma collected at 15 minutes, 1 hour and 4 hours.
1) Protocol for Administration of the Products to the Mice
The products are prepared in a mortar with 0.5% Tween 80 and 0.6% methylcellulose qs final volume. Depending on the case, preparations of different vehicles may be used: water, mixture of labrasol solutol 5% glucose-water. The suspended or dissolved products are administered by gavage (10 ml/kg) to female Balb/c mice 8 to 15 weeks old.
The animals are then collected at the time given by the protocol (15 min, 1 hour, 4 hours, 16 hours).
The animals are anaesthetized by intraperitoneal injection (10 ml/kg) of a ketamine (0.1 g/kg)-xylazine (20 mg/kg) mixture. […] The blood sample is collected from the vein or the artery using a dry syringe and needle. The blood is immediately transferred into heparin lithium tubes (BD microtainer). Centrifugation for 3 minutes at 12 000 rpm allows recovery of the plasma, on which the biochemical test may be performed after storage by freezing at −20° C.
2) Preparation of the HEK Tel/PDGF-R Cells and Measurement of the Phosphorylation of PDGF-R
In order to detect the ex vivo activity of the products using the mouse plasmas, the HEK cells are transiently transfected beforehand with an expression vector coding for the fusion protein Tel/PDGF-R (fusion protein described previously). After 24 hours of transfection, the cells are deprived of serum overnight and then incubated for 30 minutes with the animal plasmas treated with the products of the invention. The cells are then lysed in RIPA buffer, and detection of the phosphorylation of PDGF-Rβ is then performed via the ELISA technique, using a commercial kit (R&D Systems, DYC1767). The results are expressed as a percentage of inhibition of the autophosphorylation.
In this test of measurement of the ex vivo activity, the effect of the compounds of the invention is quantified by the percentage of inhibition of phosphorylation of the kinase domain of the PDGF-Rβ receptor in HEK cells, induced by the inhibitory activity of the product present in the plasma of the treated animals, as described in the following table: […]

The target in assay [2] is T2, fusion protein Tel/PDGF-Rβ (BaF3 Tel/PDGF cells) (Homo sapiens, UniProt P09619).
T2 construct: the transmembrane and intracellular part of the PDGF-Rβ receptor; N-terminal part of the Tel transcription factor (ETV6); expressed in transfected cells; host or cells: murine haematopoietic cell line BaF/3; the other entry of the earlier key: ETV6 (P41212, Transcription factor ETV6)
Kind of assay: Inhibition of PDGF-Rβ tyrosine kinase activity: proliferation of BaF3 Tel/PDGF cells (CellTiter-Glo, 72 h). Format: cell-based, murine. The conditions noted are these: 72 hours incubation, read-out: IC50 (concentration that inhibits 50% of the proliferation of the BaF3 Tel/PDGF cells). (In ATP-based viability assays light output follows the ATP content of the culture.)

By inhibition is commonly meant the change of the read-out against control, counted positive when it falls.

Where two headings read alike, the source gives them in different places.

T1 sequence (P09619 with tags, fused parts or gaps): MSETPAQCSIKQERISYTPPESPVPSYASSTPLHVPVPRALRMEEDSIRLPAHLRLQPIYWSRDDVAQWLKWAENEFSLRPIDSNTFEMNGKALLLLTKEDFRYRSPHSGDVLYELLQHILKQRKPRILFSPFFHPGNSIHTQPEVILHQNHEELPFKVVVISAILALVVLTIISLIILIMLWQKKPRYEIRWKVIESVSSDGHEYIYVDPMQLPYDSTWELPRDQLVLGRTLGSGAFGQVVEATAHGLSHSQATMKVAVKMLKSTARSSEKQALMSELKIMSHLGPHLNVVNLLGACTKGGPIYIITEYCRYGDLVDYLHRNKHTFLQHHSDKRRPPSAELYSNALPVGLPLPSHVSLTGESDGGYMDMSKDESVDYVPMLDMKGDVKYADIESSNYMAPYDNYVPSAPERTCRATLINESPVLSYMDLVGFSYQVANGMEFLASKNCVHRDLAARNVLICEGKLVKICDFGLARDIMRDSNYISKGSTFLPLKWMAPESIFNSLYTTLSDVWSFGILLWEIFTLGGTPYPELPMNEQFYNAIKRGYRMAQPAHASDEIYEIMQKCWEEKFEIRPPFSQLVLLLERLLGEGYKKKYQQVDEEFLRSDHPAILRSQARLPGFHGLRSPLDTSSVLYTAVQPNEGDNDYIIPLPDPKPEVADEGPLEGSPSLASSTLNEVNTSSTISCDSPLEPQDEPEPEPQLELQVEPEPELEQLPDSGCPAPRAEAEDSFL
T2 sequence (P09619 with tags, fused parts or gaps): as above

Consider `CCN1CC(F)(F)C[C@H]1CNC(=O)Cc1ccc(-c2ccc3c(=O)c(C(=O)NC)c(N)n(CC)c3n2)cc1` [compound 24, 2-amino-1-ethyl-7-{4-[2-({[(2S)-1-ethyl-4,4-difluoropyrrolidin-2-yl]methyl}-amino)-2-oxoethyl]phenyl}-N-methyl-4-oxo-1,4-dihydro-1,8-naphthyridine-3-carboxamide], for which the inhibition at 30 mg/kg came out at 85% in assay [1] (plasma collected at 15 min), 57% in assay [1] (plasma collected at 1 h) and 74% in assay [1] (plasma collected at 4 h). In assay [2], the IC50 was 2 nM.

Regarding `CCn1c(N)c(C(=O)NC)c(=O)c2ccc(-c3ccc(CC(=O)NCC4COCCN4C4CC4)cc3)nc21` (centres unmarked) [compound 33, 2-amino-7-[4-(2-{[(4-cyclopropylmorpholin-3-yl)methyl]amino}-2-oxoethyl)phenyl]-1-ethyl-N-methyl-4-oxo-1,4-dihydro-1,8-naphthyridine-3-carboxamide], the figures for the inhibition at 30 mg/kg in assay [1] (plasma collected at 15 min), in assay [1] (plasma collected at 1 h) and in assay [1] (plasma collected at 4 h) were 80%, 82% and 75%, respectively. Further, in assay [2], the IC50 is 4.7 nM.
